Columns and labels:
[1] = tested on: Platelet aggregation (arachidonate); experiment: Platelet aggregation inhibitory activity, ex vivo after oral administration to guinea pigs, sodium arachidonate as aggregating agent; assay type: in vivo, Hartley strain male guinea pigs; conditions: Cavia porcellus, oral, guinea pig, blood collected after 3 hours, 1.0 mM sodium arachidonate (50 μl), 50% inhibitory rate, read-out: Platelet aggregation inhibitory activity Arachidonate ED50
Procedure: (§1) Hartley strain male guinea pigs (weighing 300-350 g, one group: three animals) were fasted overnight, and to the animals were orally administered a solution or suspension of the test compounds in corn oil-10% arabic gum. […] The citrated blood thus obtained was centrifuged at 1,700 rpm for 10 minutes, and a platelet-rich plasma (PRP) was obtained from the supernatant. After isolating PRP, the remaining blood was further centrifuged at 3,000 rpm for 10 minutes, and a platelet-poor plasma (PPP) was obtained from the supernatant.
(§2) The PRP (450 μl) thus obtained was incubated at 37° C. for 3 minutes, and thereto was added 1.0 mM sodium arachidonate (50 μl) as an aggregating agent, and then the platelet aggregation thereof was measured with Platelet Aggregation Profiler® (Model PAP-3, manufactured by Bio Data Corp.) while using the PPP obtained above as a blank. As a control, as to animals to which no test compound was administered, the platelet aggregation rate was measured likewise.
(§3) The platelet aggregation inhibitory rate was calculated by the following equation. [formula]

[2] = tested on: Platelet aggregation (collagen); experiment: Platelet aggregation inhibitory activity, ex vivo after oral administration to guinea pigs, collagen as aggregating agent; assay type: in vivo, Hartley strain male guinea pigs; conditions: Cavia porcellus, oral, guinea pig, blood collected after 3 hours, 100 μg/ml collagen suspension (50 μl), 50% inhibitory rate, read-out: Platelet aggregation inhibitory activity Collagen ED50
Procedure: as §1, §2, §3
Moreover, the above method was repeated except that 100 μg/ml collagen suspension (50 μl) was used as an aggregating agent instead of sodium arachidonate.

in vivo = conditions: mouse, oral, ddy male mice, deaths counted at 10 days, Weil method, read-out: Acute toxicity LD50
Excerpt: ddy male mice (weighing 18-23 g, one group: 5 animals) were fasted overnight, and thereto was orally administered a suspension of the test compounds in 1% arabic gum solution.

With CCCCOC(=O)Cn1cccc1-c1nc(-c2ccc(OC)cc2)c(-c2ccc(OC)cc2)s1 [Ex. 17, n-Butyl 2-[4,5-bis(4-methoxyphenyl)thiazol-2-yl]-pyrrole-1-acetate] the ED50 [1] was 0.15 mg/kg, the ED50 [2] was 0.19 mg/kg and the LD50 at 240 h (in vivo) was greater than 3000 mg/kg.

COc1ccc(-c2nc(-c3cccn3CC(=O)OCC(C)C)sc2-c2ccc(OC)cc2)cc1 [Ex. 18, Isobutyl 2-[4,5-bis(4-methoxyphenyl)thiazol-2-yl]-pyrrole-1-acetate] gave an ED50 [1] of 0.072 mg/kg, an ED50 [2] of 0.12 mg/kg and an LD50 at 240 h (in vivo) greater than 3000 mg/kg.

For CCC(C)OC(=O)Cn1cccc1-c1nc(-c2ccc(OC)cc2)c(-c2ccc(OC)cc2)s1 (stereo not drawn) [Ex. 19, sec-Butyl 2-[4,5-bis(4-methoxyphenyl)thiazol-2-yl]pyrrole-1-acetate], the ED50 [1] was 0.12 mg/kg, the ED50 [2] was 0.11 mg/kg and the LD50 at 240 h (in vivo) was greater than 3000 mg/kg.

With CCCCCOC(=O)Cn1cccc1-c1nc(-c2ccc(OC)cc2)c(-c2ccc(OC)cc2)s1 [Ex. 20, n-pentyl 2-[4,5-bis(4-methoxyphenyl)thiazol-2-yl]pyrrole-1-acetate] the ED50 [1] was 0.28 mg/kg, the ED50 [2] was 0.49 mg/kg and the LD50 at 240 h (in vivo) was greater than 3000 mg/kg.

In the case of COc1ccc(-c2nc(-c3cccn3CC(=O)OCCC(C)C)sc2-c2ccc(OC)cc2)cc1 [Ex. 21, Isopentyl 2-[4,5-bis(4-methoxyphenyl)thiazol-2-yl]pyrrole-1-acetate], the ED50 [1] is reported as 0.12 mg/kg, the ED50 [2] is reported as 0.22 mg/kg and the LD50 at 240 h (in vivo) is reported as greater than 3000 mg/kg.

Compound COc1ccc(-c2nc(-c3cccn3CC(=O)OCC(C)(C)C)sc2-c2ccc(OC)cc2)cc1 [Ex. 22, Neopentyl 2-[4,5-bis(4-methoxyphenyl)thiazol-2-yl]pyrrole-1-acetate] has an ED50 [1] of 0.11 mg/kg, an ED50 [2] of 0.4 mg/kg and an LD50 at 240 h (in vivo) greater than 3000 mg/kg.

For CCC(C)COC(=O)Cn1cccc1-c1nc(-c2ccc(OC)cc2)c(-c2ccc(OC)cc2)s1 (stereo not drawn) [Ex. 23, 2-methyl-1-butyl 2-[4,5-bis(4-methoxyphenyl)thiazol-2-yl]pyrrole-1-acetate], the ED50 [1] was 0.073 mg/kg, the ED50 [2] was 0.14 mg/kg and the LD50 at 240 h (in vivo) was greater than 3000 mg/kg.

Compound CCCC(C)OC(=O)Cn1cccc1-c1nc(-c2ccc(OC)cc2)c(-c2ccc(OC)cc2)s1 (stereo not drawn) [Ex. 24, 2-pentyl 2-[4,5-bis(4-methoxyphenyl)thiazol-2-yl]pyrrole-1-acetate] has an ED50 [1] of 0.12 mg/kg, an ED50 [2] of 0.22 mg/kg and an LD50 at 240 h (in vivo) greater than 3000 mg/kg.

For CCC(CC)OC(=O)Cn1cccc1-c1nc(-c2ccc(OC)cc2)c(-c2ccc(OC)cc2)s1 [Ex. 25, 3-pentyl 2-[4,5-bis(4-methoxyphenyl)thiazol-2-yl]pyrrole-1-acetate], the ED50 [1] was 0.12 mg/kg, the ED50 [2] was 0.34 mg/kg and the LD50 at 240 h (in vivo) was greater than 3000 mg/kg.

COc1ccc(-c2nc(-c3cccn3CC(=O)OC(C)C(C)C)sc2-c2ccc(OC)cc2)cc1 (stereo not drawn) [Ex. 26, 3-methyl-2-butyl 2-[4,5-bis(4-methoxyphenyl)thiazol-2-yl]pyrrole-1-acetate] gave an ED50 [1] of 0.26 mg/kg, an ED50 [2] of 0.34 mg/kg and an LD50 at 240 h (in vivo) greater than 3000 mg/kg.

CCCCCCOC(=O)Cn1cccc1-c1nc(-c2ccc(OC)cc2)c(-c2ccc(OC)cc2)s1 [Ex. 27, n-hexyl 2-[4,5-bis(4-methoxyphenyl)thiazol-2-yl]pyrrole-1-acetate] gave an ED50 [1] of 0.21 mg/kg, an ED50 [2] of 0.22 mg/kg and an LD50 at 240 h (in vivo) greater than 3000 mg/kg.

In the case of CCCCCCCCOC(=O)Cn1cccc1-c1nc(-c2ccc(OC)cc2)c(-c2ccc(OC)cc2)s1 [Ex. 28, n-octyl 2-[4,5-bis(4-methoxyphenyl)thiazol-2-yl]pyrrole-1-acetate], the ED50 [1] is reported as 0.39 mg/kg, the ED50 [2] is reported as 0.44 mg/kg and the LD50 at 240 h (in vivo) is reported as greater than 3000 mg/kg.

Work on C=CCOC(=O)Cn1cccc1-c1nc(-c2ccc(OC)cc2)c(-c2ccc(OC)cc2)s1 [Ex. 29, allyl 2-[4,5-bis(4-methoxyphenyl)thiazol-2-yl]pyrrole-1-acetate] yielded an ED50 [1] of 0.047 mg/kg, an ED50 [2] of 0.11 mg/kg and an LD50 at 240 h (in vivo) greater than 3000 mg/kg.

For C#CCOC(=O)Cn1cccc1-c1nc(-c2ccc(OC)cc2)c(-c2ccc(OC)cc2)s1 [Ex. 30, Propargyl 2-[4,5-bis(4-methoxyphenyl)thiazol-2-yl]pyrrole-1-acetate], the ED50 [1] was 0.039 mg/kg, the ED50 [2] was 0.068 mg/kg and the LD50 at 240 h (in vivo) was greater than 3000 mg/kg.

From patent publication US4659726A, “Novel 4,5-Bis (4-methoxyphenyl)-2-(pyrrol-2-yl) thiazoles and pharmaceutical composition containing the same” (Kanebo, Ltd., priority 1984, dated 1987)
